The values below come from patent publication US20240262801A1, “COMPOUNDS HAVING 5-(2-FLUORO-6-HYDROXYPHENYL)-1,2,5-THIADIAZOLIDIN-3-ONE 1,1-DIOXIDE AS INHIBITORS OF PROTEIN KINASE PHOSPHATASE ENZYMES” (Ness Therapeutics, Inc., priority 2021, published 2024).

Read-outs that look alike come from different tables or passages of the source. Bounds are passed on as bounds.

In experiment [1] the test system is B16F10 mouse melanoma cells. The experiment in a line: Tumor cells B16F10 cellular growth IFNγ-induced inhibition assay (CellTiter-Glo). Format: cell-based. To be noted: for IC50: B16-F10, 72 h, 3 days incubation; for inhibition at 100 µM: B16-F10, B16F10, 100 μM compound. The gist of the method:
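Cells were seeded at 500/well in DMEM + 10% FBS and allowed to adhere overnight at 37° C, 5% CO2. Compounds at 1× final were added via medium with or without IFNγ (5 ng/ml in the dilution medium). After 3 days, CellTiter-Glo luminescence gave % growth inhibition versus the DMSO/IFNγ control, from which IC50 was derived.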
In general terms: In ATP-based viability assays light output follows the ATP content of the culture.

The target of the next experiment is T1, GST-tagged PTPN2 protein (Homo sapiens, UniProt P17706).
T1 construct: purchased ActiveMotif 31592
T1 sequence (P17706 with tags, fused parts or gaps): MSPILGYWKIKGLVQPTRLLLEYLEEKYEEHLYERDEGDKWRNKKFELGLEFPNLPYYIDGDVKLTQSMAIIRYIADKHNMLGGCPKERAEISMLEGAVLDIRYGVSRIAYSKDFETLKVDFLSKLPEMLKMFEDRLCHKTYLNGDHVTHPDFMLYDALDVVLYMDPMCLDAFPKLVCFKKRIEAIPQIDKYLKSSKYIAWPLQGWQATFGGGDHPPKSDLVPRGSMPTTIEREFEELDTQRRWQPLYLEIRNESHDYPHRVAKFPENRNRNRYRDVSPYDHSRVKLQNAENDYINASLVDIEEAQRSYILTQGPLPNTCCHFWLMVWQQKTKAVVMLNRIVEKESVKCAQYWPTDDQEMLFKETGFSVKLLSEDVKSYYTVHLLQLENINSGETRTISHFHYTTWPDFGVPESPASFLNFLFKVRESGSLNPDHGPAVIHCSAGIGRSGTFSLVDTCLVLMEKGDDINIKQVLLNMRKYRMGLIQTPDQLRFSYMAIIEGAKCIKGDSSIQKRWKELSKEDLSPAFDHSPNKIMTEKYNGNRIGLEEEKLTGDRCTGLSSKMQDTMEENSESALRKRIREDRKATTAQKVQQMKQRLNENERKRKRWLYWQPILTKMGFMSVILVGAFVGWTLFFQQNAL
In words: Primary assay of PTPN2 enzymatic activity inhibition (DiFMUP fluorescence). The class given is biochemical. The conditions noted are these: DiFMUP substrate 2 μM, 60 min at RT. The gist of the method: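 Enzyme at 0.004 ng/μL final in 50 mM HEPES pH 7.2-7.4, 2 mM EDTA, 100 mM NaCl, BSA, 6 mM DTT; compounds preincubated 10 min at RT. DiFMUP added at 2 μM final, 60 min at RT, fluorescence read at ex 360/em 450 nm. IC50 calculated from % inhibition.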

[2] abbreviates: B16F10, + IFNγ, read-out: IC50 + IFNγ.
Where [3] appears, read: B16F10, no IFNγ, read-out: IC50 no IFNγ.
[4] abbreviates: + IFNγ, read-out: % Growth Inhibition at 100 μM + IFNγ.
[5] abbreviates: no IFNγ, read-out: % Growth Inhibition at 100 μM no IFNγ.

As a reminder, the IC50 is the concentration that inhibits the measured activity by half. The inhibition is how much of the control response was suppressed. With `O=C1CN(c2c(O)cc(NC(=O)NCC3CCCO3)cc2F)S(=O)(=O)N1` (centres unmarked) [Example 57, 1-[4-(1,1-dioxido-4-oxo-1,2,5-thiadiazolidin-2-yl)-3-fluoro-5-hydroxyphenyl]-3-(tetrahydrofuran-2-ylmethyl)urea], the half-maximal inhibitory concentration (IC50) is 10 to 50 µM in experiment [1] (setting [2]), at least 100 µM in experiment [1] (setting [3]) and 0.01 to 0.05 µM against GST-tagged PTPN2 protein. Further, the inhibition at 100 µM in experiment [1] (setting [4]) fell in the range of 50 to 75%; in experiment [1] (setting [5]), 10 to 50%.
For `Cc1c(S(=O)(=O)Nc2cc(O)c(N3CC(=O)NS3(=O)=O)c(F)c2)cnn1C(F)F` [Example 27, 1-(difluoromethyl)-N-[4-(1,1-dioxido-4-oxo-1,2,5-thiadiazolidin-2-yl)-3-fluoro-5-hydroxyphenyl]-5-methyl-1H-pyrazole-4-sulfonamide], the IC50 is at least 100 µM in experiment [1] (setting [2]), at least 100 µM in experiment [1] (setting [3]) and 0.05 to 0.1 µM at GST-tagged PTPN2 protein. Besides, the inhibition at 100 µM in experiment [1] (setting [4]) and in experiment [1] (setting [5]) was 10 to 50% in each case.
`Cc1ccc(NC(=O)Nc2cc(O)c(N3CC(=O)NS3(=O)=O)c(F)c2)cc1` [Example 36, 1-[4-(1,1-dioxido-4-oxo-1,2,5-thiadiazolidin-2-yl)-3-fluoro-5-hydroxyphenyl]-3-(4-methylphenyl)urea]: the results for the 50% inhibitory concentration (IC50) (in experiment [1] (setting [2]); in experiment [1] (setting [3]); on GST-tagged PTPN2 protein) were 50 to 100 µM, at least 100 µM and under 0.005 µM, respectively. The inhibition at 100 µM was in the range of 50 to 75% in experiment [1] (setting [4]) and 10 to 50% in experiment [1] (setting [5]).
Turning to `COc1ccc(CNC(=O)Nc2cc(O)c(N3CC(=O)NS3(=O)=O)c(F)c2)cc1` [Example 63, 1-[4-(1,1-dioxido-4-oxo-1,2,5-thiadiazolidin-2-yl)-3-fluoro-5-hydroxyphenyl]-3-(4-methoxybenzyl)urea], the concentration for half-maximal inhibition (IC50) in experiment [1] (setting [2]) is 10 to 50 µM; in experiment [1] (setting [3]), at least 100 µM; against GST-tagged PTPN2 protein, 0.01 to 0.05 µM. The inhibition at 100 µM in experiment [1] (setting [4]) lay in the range of 75 to 100%; in experiment [1] (setting [5]) it was 10 to 50%.
In the same order, the values of `O=C1CN(c2c(O)cc(NC(=O)Nc3ccc(F)cc3)cc2F)S(=O)(=O)N1` [Example 53, 1-[4-(1,1-dioxido-4-oxo-1,2,5-thiadiazolidin-2-yl)-3-fluoro-5-hydroxyphenyl]-3-(4-fluorophenyl)urea] are at least 100 µM, at least 100 µM, 0.005 to 0.01 µM, 10 to 50% and 10 to 50%.
In the same order, the values of `CC(C)C[C@@H](CO)NC(=O)Nc1cc(O)c(N2CC(=O)NS2(=O)=O)c(F)c1` [Example 110, 1-[3-fluoro-5-hydroxy-4-(1,1,4-trioxo-1,2,5-thiadiazolidin-2-yl)phenyl]-3-[(1S)-1-(hydroxymethyl)-3-methyl-butyl]urea] are 10 to 50 µM, at least 100 µM, 0.005 to 0.01 µM, 50 to 75% and 10 to 50%.
For `COc1ccc(S(=O)(=O)Nc2cc(O)c(N3CC(=O)NS3(=O)=O)c(F)c2)cc1` [Example 25, N-[4-(1,1-dioxido-4-oxo-1,2,5-thiadiazolidin-2-yl)-3-fluoro-5-hydroxyphenyl]-4-methoxybenzenesulfonamide], in that order: 10 to 50 µM, at least 100 µM, 0.01 to 0.05 µM, 50 to 75% and 10 to 50%.
In the case of `O=C1CN(c2c(O)cc(NC(=O)N[C@H](CO)Cc3ccccc3)cc2F)S(=O)(=O)N1` [Example 109, 1-[(1S)-1-benzyl-2-hydroxy-ethyl]-3-[3-fluoro-5-hydroxy-4-(1,1,4-trioxo-1,2,5-thiadiazolidin-2-yl)phenyl]urea], the results for the IC50 (in experiment [1] (setting [2]); in experiment [1] (setting [3]); against GST-tagged PTPN2 protein) were 10 to 50 µM, at least 100 µM and under 0.005 µM, respectively. For the same molecule, the inhibition at 100 µM lay in the range of 50 to 75% in experiment [1] (setting [4]) and 10 to 50% in experiment [1] (setting [5]).
With `Cc1cccc(S(=O)(=O)Nc2cc(O)c(N3CC(=O)NS3(=O)=O)c(F)c2)c1` [Example 22, N-[4-(1,1-dioxido-4-oxo-1,2,5-thiadiazolidin-2-yl)-3-fluoro-5-hydroxyphenyl]-3-methylbenzenesulfonamide], the values for the half-maximal inhibitory concentration (IC50) (in experiment [1] (setting [2]); in experiment [1] (setting [3]); at GST-tagged PTPN2 protein) were 10 to 50 µM, at least 100 µM and 0.01 to 0.05 µM, respectively. Further, the inhibition at 100 µM in experiment [1] (setting [4]) was in the range of 50 to 75%; in experiment [1] (setting [5]), 10 to 50%.
With `Cc1cccc(NC(=O)Nc2cc(O)c(N3CC(=O)NS3(=O)=O)c(F)c2)c1` [Example 42, 1-[4-(1,1-dioxido-4-oxo-1,2,5-thiadiazolidin-2-yl)-3-fluoro-5-hydroxyphenyl]-3-(3-methylphenyl)urea], the IC50 in experiment [1] (setting [2]) is at least 100 µM; in experiment [1] (setting [3]) it was at least 100 µM; at GST-tagged PTPN2 protein, under 0.005 µM. Besides, the inhibition at 100 µM in experiment [1] (setting [4]) and in experiment [1] (setting [5]) was 10 to 50% throughout.
